In patent US6368624B1, “Tableted product prepared by vacuum freeze-drying of a plant belonging to genus aloe of family Liliaceae and the method for producing same” (Yurika Incorporated, priority 1990, dated 2002) one finds Agglutination titer data, which are given here for one substance.

The assay has as its system human O-type erythrocytes. The experiment in a line: Erythrocyte agglutination, microtiter method. The class given is cell-based. The settings on record: at a concentration of 1 mg/ml. The protocol: The inventive tablet and the control tablet obtained by drying under hot air circulation, were crushed into powders. 1.0 g each of the powders was dissolved in 10 ml of distilled water. After stirring, each of the resulting solutions was centrifuged at 4° C. for 30 minutes at 12,000 rpm.
The erythrocyte agglutination activity of each of the produced supernatants was examined in accordance with the microtiter method.
A buffer solution obtained by mixing phosphoric acid with physiological saline to pH 7.4 was added to 100 μl each of the supernatarits for two-stage dilution until 128-fold dilution was reached. To each diluted solution, 100 μof the 1% human O-type erythrocytes were added, and reaction was carried out at 37° C. for one hour to observe the progress of agglutination.

Concanavalin A showed an Agglutination titer of 32 titer.
